Test results reported in patent US4808612A, “2-Arylbenzo(b)(1,6)naphthyridines as inhibitors of interleukin 1” (American Home Products Corporation, priority 1987, dated 1989).

Test system: IL 1-induced release of neutral protease from rabbit articular chondrocytes
Test: Inhibition of the IL 1-induced release of neutral protease from rabbit articular chondrocytes (azocoll neutral protease assay)
Type: cell-based
Conditions: Oryctolagus cuniculus, Chondrocyte, purified human IL 1, 24 h after IL 1 stimulation, read-out: % Inhibition (S.D)
Method: The ability of the compounds of the inventions to inhibit interleukin 1 is measured by the ability of the test compounds to inhibit the IL 1-induced release of neutral protease from rabbit articular chondrocytes.
This assay is carried out as follows:
Isolation of rabbit chondrocytes:
Male New Zealand White rabbits are anesthetized with 50 mg/kg of ketamine (i.m.) and killed by an intracardiac injection of 3 mls. of Nembutal. The knee joints of both legs are resected and the articular surfaces are exposed. Cartilage slices are obtained using a scalpel and are placed in a tissue culture dish (100 mm diameter) containing 10 mls of Hank's balanced salt solution (HBSS). The chondrocytes within the cartilage slices are then liberated by a series of enzyme digestions. The slices are incubated for 10 min. at 37° C. in 0.05% hyaluronidase (Sigma H-3884), rinsed with HBSS and incubated with 0.2% trypsin (Sigma T-2395) for 10 min. at 37° C. The slices are rinsed again and incubated for 10 mins. at 37° C. with 1.2% collagenase (Sigma C-5138). The slices are then rinsed again with HBSS and resuspended in 10 ml of Ham's F-12 medium containing 10% fetal bovine calf cerum (FCS) and 0.2% collagenase and incubated overnight at 37° C. in a 5% CO2 incubator. The next day, the medium containing the digested cartilage fragments and liberated chondrocytes is transferred to a 15 ml centrifuge tube and the cells are collected by centrifugation and washed twice and resuspended in Ham's F-12 medium. The cells are then plated into 24-well tissue culture plates (2×10^5 cells/well) and incubated at 37° C. until confluent (usually 4-6 days).
Stimulation of chondrocytes and drug treatment:
The confluent chondrocytes are rinsed twice with serum-free Ham's F-12 medium and 1 ml is added to each well. Fifty μl of purified human IL 1 (100 Units/ml; Genzyme Corporation, Boston, MA) is then added to stimulate these cells to secrete neutral protease. To measure drug effects, the cells are treated with test compound 10 min. prior to addition of IL 1. The standard screening dose is 10 μM. Twenty-four hours after IL 1 stimulation, supernatant fluids are collected and assayed for neutral protease activity.
The neutral protease activity of chondrocyte supernatant fluids is determined by their ability to degrade an insoluble protease substrate, azocoll (Sigma). Supernatants are treated for 10 min. at room temperature with 350 μM p-aminophenylmurcuric acetate to activate the latent enzyme. Three hundred μl of supernatant is then mixed with 500 μl of a 20 mg/ml suspension of azocoll and incubated at 37° C. for 18-24 hrs. with gentle rocking. The mixtures are centrifuged and the amount of substrate hydrolyzed is determined by measuring the absorbance of the supernatant at 520 nm.
Drug effects are calculated as the % change in enzyme activity (absorbance)by supernatants from drug-treated chondrocytes relative to enzyme activity of supernatants from vehicle-treated chondrocytes as follows: [formula]

## CCOC(=O)c1ccc(N2CCc3nc4cc(Cl)ccc4c(Cl)c3C2)cc1 [Example 2, 4-(7,10-Dichloro-3,4-dihydrobenzo[b][1,6]naphthyridin-2(1H)-yl)benzoic acid ethyl ester]
  inhibition at 10 µM: 35 ± 16%

## N#Cc1ccc(N2CCc3nc4cc(F)ccc4c(Cl)c3C2)cc1 [Example 11, 4-(10-Chloro-7-fluoro-3,4-dihydrobenzo[b][1,6]naphthyridin-2(1H)-yl)benzonitrile, 1/4 hydrate]
  inhibition at 10 µM: < 20%

## N#Cc1ccc(N2CCc3nc4ccccc4c(Cl)c3C2)cc1 [Example 5, 4-(10-Chloro-3,4-dihydrobenzo[b][1,6]naphthyridine-2(1H)-yl)benzonitrile, hemihydrate]
  inhibition at 10 µM: 66 ± 29%

## N#Cc1ccc(N2CCc3nc4cc(Cl)ccc4c(NNc4ccccc4)c3C2)cc1 [Example 12, 4-[7-Chloro-3,4-dihydro-10-(2-phenylhydrazino)benzo[b][1,6]naphthyridin-2(1H)-yl]benzonitrile, hydrate]
  inhibition at 10 µM: 69%

## Cc1ccc2c(Cl)c3c(nc2c1)CCN(c1ccc(C#N)cc1)C3 [Example 10, 4-(10-Chloro-3,4-dihydro-7-methylbenzo[b][1,6]naphthyridin-2(1H)-yl)benzonitrile, 1/5 ethyl acetate]
  inhibition at 10 µM: 33%

## N#Cc1ccc(N2CCc3nc4ccc(Cl)cc4c(Cl)c3C2)cc1 [Example 9, 4-(8,10-Dichloro-3,4-dihydrobenzo[b][1,6]naphthyridin-2(1H)-yl)benzonitrile, 1/4 hydrate]
  inhibition at 1 µM: 43%
  inhibition at 10 µM: 86%

## N#Cc1ccc(N2CCc3nc4cc(Cl)ccc4c(Cl)c3C2)cc1 [Example 1, 4-(7,10-Dichloro-3,4-dihydrobenzo[b][1,6]naphthyridin-2(1H)-yl)benzonitrile]
  inhibition at 10 µM: 22 ± 1%

## CS(=O)(=O)c1ccc(N2CCc3nc4cc(Cl)ccc4c(Cl)c3C2)cc1 [Example 3, 7,10-Dichloro-1,2,3,4-tetrahydro-2-(4-methylsulfonyl)phenylbenzo[b][1,6]naphthyridine]
  inhibition at 0.1 µM: 69 ± 1%
  inhibition at 1 µM: 66 ± 1%
  inhibition at 10 µM: 62 ± 2%

## Fc1ccc(N2CCc3nc4cc(Cl)ccc4c(Cl)c3C2)cc1 [Example 4, 7,10-Dichloro-2-(4-fluorophenyl)-1,2,3,4-tetrahydrobenz[b][1,6]naphthyridine]
  inhibition at 1 µM: 9 ± 20%
  inhibition at 10 µM: 76 ± 29%

## CCOC(=O)c1ccc(N2CCc3nc4ccccc4c(Cl)c3C2)cc1 [Example 8, 4-(10-Chloro-3,4-dihydrobenzo[b][1,6]naphthyridin-2(1H)-yl)benzoic acid ethyl ester]
  inhibition at 0.1 µM: 40%
  inhibition at 1 µM: 43%
  inhibition at 10 µM: 91%
